US6569633B1, “Modulation of the sulfonylurea receptor and calcium in adipocytes for treatment of obesity/diabetes” (Artecel Science, Inc., priority 1998, dated 2003)

How the values were obtained:
Assay type in all cases: cell-based
[1] = test system: GPDH activity in human adipocytes; test: GPDH activity in human adipocytes
Protocol: FIG. 3. The lipogenic effect of glibenclamide in human adipocytes. As an indicator of lipogenic stimulation, both FAS and GPDH activity were measured. A. Glibenclamide stimulation of FAS activity. Human adipocytes were treated with 10 μM glibenclamide alone, 10 μM glibenclamide plus 10 μM diazoxide or 10 μM glibenclamide plus 30 μM nitrendipine for 48 hr. FAS was measured as described (6, 14). *p<0.001 vs. Control. B. Glibenclamide stimulation of GPDH activity. Human adipocytes were treated with 10 μM glibenclamide or 10 μM glibenclamide plus 10 μM diazoxide for 48 hr. GPDH activity was measured as described (14). *p<0.01 vs. Control.
To study the role of adipocyte SUR1 in regulating lipogenesis, we treated human adipocyte with SUR1 agonist and antagonist using FAS and GPDH activities as lipogenic markers. Human adipocytes were incubated in 24-well plates with the treatments indicated for 48 hr. FAS and GPDH activities were determined spectrophotometrically in crude cytosolic extracts of human adipocytes by measuring the oxidation rate of NADPH or NADH respectively, as previously described (14). The protein correction was measured by a modified Bradford method using Coomassie Blue dye (Pierce, Rockford, Ill.).

human adipocytes = test: Lipolysis (glycerol release into the culture medium) in human adipocytes
Protocol: FIG. 4. The anti-lipolytic effect of glibenclamide in human adipocytes. Activation of lipolysis in adipocytes is typically measured by release of glycerol into the media. Human adipocytes were treated with 10 μM glibenclamide alone, 10 μM glibenclamide plus 10 μM diazoxide or 10 μM glibenclamide plus 30 μM nitrendipine for 48 hr. Glycerol release was determined as described (19). *p<0.01 vs. Control.
Human adipocytes were examined for changes in lipolysis regulation by measurement of glycerol release into the media. Glycerol was measured by using a standard method (19), although other techniques for measuring glycerol would be equally useful.
Human subcutaneous abdominal adipose tissue was obtained from patients undergoing elective abdominal cosmetic surgery, although other types of adipose tissue, such as mesenteric, retroperitoneal, perirenal, or omental may be useful in identifying these compounds. Preadipocytes are isolated by collagenase treatment of the tissue and cultured adipocytes prepared as described (patent filed; Jan. 29, 1999; Ser. No. 09/240,029). Agents that regulate calcium flux in adipocytes as noted above can mediate lipolysis. Human adipocytes may be cultured in multi-well plates with different treatments between 1 hour or 24 hours as indicated, and glycerol release into the culture medium was determined as an indicator for lipolysis using a one-step enzymatic fluorometric method. The media collected from 1 hr treatments were used directly for glycerol measurements. For 24 hr treatments, media were removed, and cells were washed with Hank's Balanced Salt Solution and incubated in fresh medium for a further 10-60 min. This media were then used for glycerol measurements for 24 hr treatments.
We next investigated the role of adipocyte SUR1 on lipolysis. Lipolysis was measured as follows. Human adipocytes were treated as described below and glycerol release into the culture medium was determined as an indicator for lipolysis using a one step enzymatic fluorometric method (19). After treatment medium was obtained, HClO4 was added for deproteinization.
Agents that regulate calcium flux in adipocytes as noted above can mediate lipolysis. Human adipocytes (1 mL cells/well) were incubated in 24-well plates with different treatments for either 1 hour or 24 hours as indicated, and glycerol release into the culture medium was determined as an indicator for lipolysis using a one-step enzymatic fluorometric method. The media collected from 1 hr treatments were used directly for glycerol measurements. For 24 hr treatments, media were removed, and cells were washed with Hank's Balanced Salt Solution and incubated in fresh medium for a further 30 min. This media were then used for glycerol measurements for 24 hr treatments. After medium was collected, HClO4 was added to give a final concentration of 3% for deproteinization. The sample was centrifuged at 9000×g for 20 min. The supernatant was then collected and neutralized with 10N NaOH. Samples were stored at −80° C. prior to glycerol assay. Cells were collected, homogenized and stored at −80° C. for subsequent total protein correction by a modified Bradford method using Coomassie Blue dye (PIERCE, Rockford, Ill.).

[2] = test system: FAS activity in human adipocytes; test: Fatty acid synthase (FAS) activity in human adipocytes; settings: for fatty acid synthase activity: control 1.93±0.24
human preadipocytes = test: Intracellular Ca2+ ([Ca2+]i) response in human preadipocytes
[3] = SUR agonists such as glibenclamide, general description

Question: `COc1ccc(Cl)cc1C(=O)NCCc1ccc(S(=O)(=O)NC(=O)NC2CCCCC2)cc1` [glibenclamide] was tested. Which “increase in GPDH activity” value ([1]; 10 μM glibenclamide, 48 hr) did it give?
Answer: Its value is 48%.

Question: What about the GPDH activity ([1]; 10 μM glibenclamide, 48 hr, control 554.0±33.0) of the same molecule?
Answer: Its GPDH activity is 821.0±73.4 NADH nM/min/mg protein.

Question: What about the “increased GPDH activity” value [1, 3] of the same molecule?
Answer: The value was 50-100%.

Question: What about the “lipolysis (glycerol release)” value (human adipocytes; 10 μM glibenclamide, 48 hr, control 0.193±0.050) of the same molecule?
Answer: The value was 0.061±0.009 NADH μM/mg protein.

Question: And the inhibition at 10 µM (human adipocytes; Homo sapiens, Adipocyte, 10 μM glibenclamide, 48 hr)?
Answer: The inhibition at 10 µM was 68%.

Question: What about the inhibition in lipolysis (human adipocytes; [3]) of the same molecule?
Answer: Its inhibition in lipolysis is 25-70%.

Question: What about the “fatty acid synthase activity” value ([2]; 2 μM glibenclamide) of the same molecule?
Answer: The value was 7.90±0.4 nmol/min/mg protein.

Question: What about the “increase in adipocyte FAS activity” value ([2]; 10 μM glibenclamide, 48 hr) of the same molecule?
Answer: The value was 67%.

Question: What about the FAS activity ([2]; 10 μM glibenclamide, 48 hr, control 0.692±0.052) of the same molecule?
Answer: Its FAS activity is 1.154±0.010 NADPH nM/min/mg protein.

Question: And the “fatty acid synthase activity” value ([2]; 10 μM glibenclamide)?
Answer: The value was 12.8 ± 0.6 nmol/min/mg.

Question: And the “increased FAS activity from basal levels” value ([2]; SUR agonist such as glibenclamide, general description)?
Answer: Its value is 50%-500%.

Question: And the “[Ca2+]i response” value (human preadipocytes)?
Answer: Its value is “did not exhibit any [Ca^2+]i response”.
